One block for each compound: values may come before it.
Legend:
Assay type in all cases: cell-based
[1] = test system: Human large cell immunoblastic lymphoma cell line SR; test: Inhibition of SR cell proliferation (CellTiter luminescent viability); settings: Table IB1, ALK inhibitor-based, 96 hours, read-out: Inhibitory activity (IC50, nM) on tumor cell proliferation, SR
Protocol: (§1) The tumor cells used herein were cultured in a cell culture medium listed in table 3 at 37 °C in an incubator with 5% CO2. Prior to experimentation, all cell lines used were correctly identified by STR profiling, and tested negative for mycoplasma contamination using a mycoplasma detection kit through routine screenings.
(§2) The IC50 values of the compounds of the present disclosure (including the compounds in Table 1, Table 2, and Examples 1-468) were determined using the CellTiter-Meiluncell Luminescent Cell Viability Assay Kit from Dalian Meilun Biotech Co., Ltd. The detailed procedure is as follows: Tumor cells were seeded in 96-well cell culture plates at the densities specified in Table 4. On the following day, the test compounds of the present disclosure were subjected to serial dilution. The dilution can be performed according to one of the following two methods: • (1) The first dilution method: The test compounds of the present disclosure (including the compounds in Table 1, Table 2, and Examples 1-468) were subjected to 5-fold serial dilutions starting from a highest concentration of 2000 μM, resulting in a total of 9 concentrations from high to low (2000, 400, 80, 16, 3.2, 0.64, 0.128, 0.0256, 0.00512 μM). Subsequently, 0.5 μL of the test compound dilution was transferred into the 96-well plate containing the cells, with each well containing 100 μL of cell culture medium. […] Into the 96-well plate, the diluted test compounds and corresponding detection reagents were added, resulting in final test compound concentrations of 500 nM and 10 nM, respectively. The experimental procedure is described below using the diluted 2 μM test compound as an example.
(§3) 0.5 μL of the aforementioned diluted compound of the present disclosure (including the compounds in Table 1, Table 2, and Examples 1-468) was added to the seeded cells in 100 μL of medium, yielding a final test compound concentration of 10 nM. After the cells were treated with the compounds of the present disclosure for a specified period, the cell viability assay reagent was added to the culture medium according to the kit's instructions to determine cell viability. […] All controls were treated using the same procedure as the compounds of the present disclosure. The growth inhibition curves for the compounds of the present disclosure were plotted using Prism GraphPad software, and the IC50 values were calculated therefrom.

[2] = target: T1, ALK (Homo sapiens, UniProt Q9UM73); test: Western blot degradation of ALK; settings: H2228 Cell; 24 hours
T1 construct: known EML4-ALK variant 3 fusion, ALK kinase part unmutated), Western blot
Protocol: (§4) Conventional Western blot assay was performed to evaluate the effects of the compounds of the present disclosure on the expression of target proteins in cells.
(§5) (1) Cell Seeding and Protein Harvesting: The selected cells were processed according to the cell seeding procedure and protein harvesting procedure in Table II-2.
(§6) (2) To the collected supernatant, 5×SDS sample loading buffer was added, followed by denaturation at 95 °C for 5 minutes. The denatured samples were then separated by SDS-PAGE electrophoresis on a polyacrylamide gel. Proteins were transferred to a nitrocellulose membrane (0.45 μm NC membrane), blocked with blocking buffer at room temperature for 1 hour, and subjected to antibody incubation and development procedures according to the antibody manufacturer's instructions (Cell Signaling Technology).
(§7) Half-Maximal Degradation Concentration value (the drug concentration required for degrading proteins by 50%, abbreviated as DC50) reads method: comparing the grayscale values of Western blot bands from drug-treated samples with those from blank DMSO-treated controls, and identifying the drug concentration range at which the grayscale value is half that of the DMSO-treated control bands.
(§8) DC50 values can be calculated using ImageJ software to measure grayscale values of Western blot bands from drug-treated samples. The concentration-response curve is fitted to estimate the drug concentration corresponding to half the grayscale value.
(§9) Target protein remaining (%) refers to the percentage of target protein remaining in cells after treatment with protein degrader compounds.
(§10) Calculation method for target protein remaining (%): Use ImageJ software to measure grayscale values of Western blot bands from drug (protein degrader)-treated samples. The grayscale value of drug-treated bands is divided by that of internal control protein bands, and the resulting quotient is normalized to obtain the relative percentage of remaining target protein after protein degrader treatment.
(§11) Target protein degradation rate (%)=1−target protein remaining (%).

[3] = test system: Human T lymphocytic leukemia cell line (Jurkat); test: Inhibition of Jurkat cell proliferation (CellTiter luminescent viability); settings: Homo sapiens, Table IF3, AR inhibitor-based, 96 hours; for inhibition at 0.01 µM: 10 nM, read-out: Inhibition Rate at 10 nM (%); for inhibition at 0.5 µM: 500 nM, read-out: Inhibition Rate at 500 nM (%)
Protocol: as §1, §2, §3

[4] = target: T2, AR (Homo sapiens, UniProt P10275); test: Western blot degradation of AR; settings: LnCap Cell; 24 hours
T2 construct: expression of target proteins in cells; endogenous in cells
T2 sequence (P10275 1-920): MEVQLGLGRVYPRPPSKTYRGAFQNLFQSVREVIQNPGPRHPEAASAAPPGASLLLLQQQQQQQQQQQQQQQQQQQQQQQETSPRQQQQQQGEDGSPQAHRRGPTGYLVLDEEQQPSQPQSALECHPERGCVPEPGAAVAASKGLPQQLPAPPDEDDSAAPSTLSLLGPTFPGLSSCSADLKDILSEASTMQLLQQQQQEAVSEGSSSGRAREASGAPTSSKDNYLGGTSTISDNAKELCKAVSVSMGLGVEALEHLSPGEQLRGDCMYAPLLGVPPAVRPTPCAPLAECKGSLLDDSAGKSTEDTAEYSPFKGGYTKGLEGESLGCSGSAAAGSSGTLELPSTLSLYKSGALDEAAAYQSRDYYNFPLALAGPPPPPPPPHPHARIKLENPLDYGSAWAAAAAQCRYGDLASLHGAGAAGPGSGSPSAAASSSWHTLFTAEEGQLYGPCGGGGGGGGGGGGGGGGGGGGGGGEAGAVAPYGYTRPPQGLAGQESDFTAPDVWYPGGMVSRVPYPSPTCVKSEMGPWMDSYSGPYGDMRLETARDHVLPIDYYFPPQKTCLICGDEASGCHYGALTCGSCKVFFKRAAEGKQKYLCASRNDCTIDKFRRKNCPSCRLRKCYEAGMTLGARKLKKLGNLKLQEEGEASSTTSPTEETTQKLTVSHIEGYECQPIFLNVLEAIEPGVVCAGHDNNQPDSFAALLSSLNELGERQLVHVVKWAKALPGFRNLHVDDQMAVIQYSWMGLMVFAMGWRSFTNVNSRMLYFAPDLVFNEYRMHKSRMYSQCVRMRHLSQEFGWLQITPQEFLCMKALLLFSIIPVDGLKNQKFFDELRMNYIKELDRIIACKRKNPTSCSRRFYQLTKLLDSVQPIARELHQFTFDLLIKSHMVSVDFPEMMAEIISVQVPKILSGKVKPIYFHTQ
Protocol: as §4, §5, §6, §7, §8, §9, §10, §11

[5] = test system: Human acute lymphocytic leukemia T lymphocytes cell line (CCRF-CEM); test: Inhibition of CCRF-CEM cell proliferation (CellTiter luminescent viability); settings: Homo sapiens, 96 h, Table IF2, AR inhibitor-based; for inhibition at 0.01 µM: 10 nM, read-out: Inhibition Rate at 10 nM (%); for inhibition at 0.5 µM: 500 nM, read-out: Inhibition Rate at 500 nM (%)
[6] = test system: Human diffuse large B-cell lymphoma cell line (TMD8); test: Inhibition of TMD8 cell proliferation (CellTiter luminescent viability); settings: Homo sapiens, TMD8, 96 h, Table IF1, AR inhibitor-based; for inhibition at 0.01 µM: TMD8, 10 nM, read-out: Inhibition Rate at 10 nM (%); for inhibition at 0.5 µM: TMD8, 500 nM, read-out: Inhibition Rate at 500 nM (%)

T1 sequence (Q9UM73 19-1620): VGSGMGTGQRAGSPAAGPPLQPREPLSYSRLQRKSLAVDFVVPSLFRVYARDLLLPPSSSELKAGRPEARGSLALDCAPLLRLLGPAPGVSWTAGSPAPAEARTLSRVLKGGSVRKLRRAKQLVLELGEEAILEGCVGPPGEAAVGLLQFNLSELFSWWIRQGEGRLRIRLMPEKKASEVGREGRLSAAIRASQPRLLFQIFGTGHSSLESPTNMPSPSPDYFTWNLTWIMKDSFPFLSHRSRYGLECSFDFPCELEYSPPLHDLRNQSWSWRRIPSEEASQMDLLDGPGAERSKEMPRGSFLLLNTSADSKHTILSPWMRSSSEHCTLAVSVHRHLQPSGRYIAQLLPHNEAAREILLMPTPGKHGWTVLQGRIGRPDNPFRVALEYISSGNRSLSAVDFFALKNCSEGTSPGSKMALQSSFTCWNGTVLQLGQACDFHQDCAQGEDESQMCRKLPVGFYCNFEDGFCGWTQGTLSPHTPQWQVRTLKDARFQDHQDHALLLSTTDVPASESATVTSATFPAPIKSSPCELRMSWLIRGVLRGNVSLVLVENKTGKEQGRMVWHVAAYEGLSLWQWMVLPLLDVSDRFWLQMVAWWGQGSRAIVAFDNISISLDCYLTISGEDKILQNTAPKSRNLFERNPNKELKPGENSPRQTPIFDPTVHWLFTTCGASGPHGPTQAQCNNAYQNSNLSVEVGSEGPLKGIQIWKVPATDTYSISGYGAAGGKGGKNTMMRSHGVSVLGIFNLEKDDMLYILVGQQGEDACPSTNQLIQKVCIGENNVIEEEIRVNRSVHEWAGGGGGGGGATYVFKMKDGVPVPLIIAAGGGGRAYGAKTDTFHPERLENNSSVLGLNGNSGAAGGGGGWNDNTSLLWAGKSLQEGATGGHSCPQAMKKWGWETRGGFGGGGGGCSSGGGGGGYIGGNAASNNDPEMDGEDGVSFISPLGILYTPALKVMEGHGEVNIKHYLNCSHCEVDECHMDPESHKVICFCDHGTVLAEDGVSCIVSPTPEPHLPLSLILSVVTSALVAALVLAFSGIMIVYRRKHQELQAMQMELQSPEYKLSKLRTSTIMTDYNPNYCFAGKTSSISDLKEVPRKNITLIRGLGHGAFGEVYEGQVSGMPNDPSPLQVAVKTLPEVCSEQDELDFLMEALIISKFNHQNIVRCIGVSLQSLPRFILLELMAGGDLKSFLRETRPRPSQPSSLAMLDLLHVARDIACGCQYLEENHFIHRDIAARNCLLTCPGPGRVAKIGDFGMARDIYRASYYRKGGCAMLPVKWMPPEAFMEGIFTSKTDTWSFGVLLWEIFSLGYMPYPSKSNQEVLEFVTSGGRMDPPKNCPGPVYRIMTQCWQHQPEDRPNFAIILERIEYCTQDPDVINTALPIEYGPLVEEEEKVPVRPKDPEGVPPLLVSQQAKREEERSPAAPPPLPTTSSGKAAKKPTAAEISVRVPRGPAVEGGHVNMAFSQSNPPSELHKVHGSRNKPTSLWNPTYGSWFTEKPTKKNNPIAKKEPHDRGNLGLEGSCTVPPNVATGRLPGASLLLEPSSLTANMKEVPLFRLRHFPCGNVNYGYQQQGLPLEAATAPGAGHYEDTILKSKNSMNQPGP
T1 sequence (Q96SW2 whole entry partner, the tested form may be a part): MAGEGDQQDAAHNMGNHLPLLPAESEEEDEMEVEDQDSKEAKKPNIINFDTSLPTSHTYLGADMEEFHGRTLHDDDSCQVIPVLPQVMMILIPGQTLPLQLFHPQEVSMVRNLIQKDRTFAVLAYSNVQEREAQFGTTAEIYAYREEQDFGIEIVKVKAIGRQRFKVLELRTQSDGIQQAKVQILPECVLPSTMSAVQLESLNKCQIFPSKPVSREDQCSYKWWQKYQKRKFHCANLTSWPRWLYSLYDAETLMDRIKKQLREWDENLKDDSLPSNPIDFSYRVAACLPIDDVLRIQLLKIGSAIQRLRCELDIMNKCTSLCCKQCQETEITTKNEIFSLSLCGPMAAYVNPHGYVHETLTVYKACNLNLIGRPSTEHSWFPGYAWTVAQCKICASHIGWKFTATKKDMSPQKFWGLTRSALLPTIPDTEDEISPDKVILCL

- IC50 [1]: 50 to 100 nM
- Degradation of substrate protein ALK (substrate protein remaining %) [2]: A (0%≤substrate protein remaining %≤80%)
Compound: COc1cc(N2CCN(CC3CCN(c4ccc5c(c4)C(=O)N(N4CCC(=O)NC4=O)C5=O)CC3)CC2)ccc1Nc1ncc(Cl)c(Nc2ccccc2P(C)(C)=O)n1 [GT-07343, 5-(4-((4-(4-((5-chloro-4-((2-(dimethylphosphoryl)phenyl)amino)pyrimidin-2-yl)amino)-3-methoxyphenyl)piperazin-1-yl)methyl)piperidin-1-yl)-2-(2,4-dioxotetrahydropyrimidin-1(2H)-yl)isoindoline-1,3-dione]

- Degradation of substrate protein ALK (substrate protein remaining %) [2]: A (0%≤substrate protein remaining %≤80%)
Compound: COc1cc(N2CCC(N(C)Cc3ccc4c(c3)C(=O)N(N3CCC(=O)NC3=O)C4=O)CC2)ccc1Nc1ncc(Cl)c(Nc2ccccc2P(C)(C)=O)n1 [GT-04660, 5-(((1-(4-((5-chloro-4-((2-(dimethylphosphoryl)phenyl)amino)pyrimidin-2-yl)amino)-3-methoxyphenyl)piperidin-4-yl)(methyl)amino)methyl)-2-(2,4-dioxotetrahydropyrimidin-1(2H)-yl)isoindoline-1,3-dione]

- IC50 [1]: 10 to 50 nM
- Degradation of substrate protein ALK (substrate protein remaining %) [2]: A (0%≤substrate protein remaining %≤80%)
Compound: CCc1cc2c(cc1N1CCN(Cc3ccc4c(c3)CN(N3CCC(=O)NC3=O)C4=O)CC1)C(C)(C)c1[nH]c3cc(C#N)ccc3c1C2=O [GT-07340, 8-(4-((2-(2,4-dioxotetrahydropyrimidin-1(2H)-yl)-1-oxoisoindolin-5-yl)methyl)piperazin-1-yl)-9-ethyl-6,6-dimethyl-11-oxo-6,11-dihydro-5H-benzo[b]carbazole-3-carbonitrile]

- Degradation of substrate protein ALK (substrate protein remaining %) [2]: A (0%≤substrate protein remaining %≤80%)
Compound: COc1cc(N2CCC(CN3CC4CCC(C3)N4c3ccc4c(c3)C(=O)N(N3CCC(=O)NC3=O)C4=O)CC2)ccc1Nc1ncc(Cl)c(Nc2ccccc2P(C)(C)=O)n1 [GT-08530, 5-(3-((1-(4-((5-chloro-4-((2-(dimethylphosphoryl)phenyl)amino)pyrimidin-2-yl)amino)-3-methoxyphenyl)piperidin-4-yl)methyl)-3,8-diazabicyclo[3.2.1]octan-8-yl)-2-(2,4-dioxotetrahydropyrimidin-1(2H)-yl)isoindoline-1,3-dione]

More lines, now with the values behind:

Compound: CCc1cc2c(cc1N1CCN(CC3CCN(c4ccc5c(c4)C(=O)N(N4CCC(=O)NC4=O)C5=O)CC3)CC1)C(C)(C)c1[nH]c3cc(C#N)ccc3c1C2=O [GT-07321, 8-(4-((1-(2-(2,4-dioxotetrahydropyrimidin-1(2H)-yl)-1,3-dioxoisoindolin-5-yl)piperidin-4-yl)methyl)piperazin-1-yl)-9-ethyl-6,6-dimethyl-11-oxo-6,11-dihydro-5H-benzo[b]carbazole-3-carbonitrile]
- IC50 [1]: 50 to 100 nM
- Degradation of substrate protein ALK (substrate protein remaining %) [2]: A (0%≤substrate protein remaining %≤80%)

Compound: CCc1cc2c(cc1N1CCC(N3CCN(Cc4ccc5c(c4)C(=O)N(N4CCC(=O)NC4=O)C5=O)CC3)CC1)C(C)(C)c1[nH]c3cc(C#N)ccc3c1C2=O [GT-04661, 8-(4-(4-((2-(2,4-dioxotetrahydropyrimidin-1(2H)-yl)-1,3-dioxoisoindolin-5-yl)methyl)piperazin-1-yl)piperidin-1-yl)-9-ethyl-6,6-dimethyl-11-oxo-6,11-dihydro-5H-benzo[b]carbazole-3-carbonitrile]
- Degradation of substrate protein ALK (substrate protein remaining %) [2]: A (0%≤substrate protein remaining %≤80%)

Compound: CC1(C)[C@H](NC(=O)c2ccc(N3CCC(CN4C5CC4CN(c4ccc6c(c4)C(=O)N(N4CCC(=O)NC4=O)C6=O)C5)CC3)nc2)C(C)(C)[C@H]1Oc1ccc(C#N)c(Cl)c1 [GT-05823, N-((1r,3r)-3-(3-chloro-4-cyanophenoxy)-2,2,4,4-tetramethylcyclobutyl)-6-(4-((3-(2-(2,4-dioxotetrahydropyrimidin-1(2H)-yl)-1,3-dioxoisoindolin-5-yl)-3,6-diazabicyclo[3.1.1]heptan-6-yl)methyl)piperidin-1-yl)nicotinamide]
- inhibition at 0.01 µM [3]: 5 to 10%
- inhibition at 0.5 µM [3]: 20 to 30%
- Degradation of substrate protein AR (substrate protein remaining %) [4]: A (0%≤substrate protein remaining %≤80%)
- inhibition at 0.01 µM [5]: 5 to 10%
- inhibition at 0.5 µM [5]: 20 to 30%
- inhibition at 0.01 µM [6]: 10 to 15%
- inhibition at 0.5 µM [6]: 35 to 40%

Compound: CC1(C)[C@H](NC(=O)c2ccc(N3CCC(CN4C5CCC4CN(c4ccc6c(c4)C(=O)N(N4CCC(=O)NC4=O)C6=O)C5)CC3)nc2)C(C)(C)[C@H]1Oc1ccc(C#N)c(Cl)c1 [GT-05826, N-((1r,3r)-3-(3-chloro-4-cyanophenoxy)-2,2,4,4-tetramethylcyclobutyl)-6-(4-((3-(2-(2,4-dioxotetrahydropyrimidin-1(2H)-yl)-1,3-dioxoisoindolin-5-yl)-3,8-diazabicyclo[3.2.1]octan-8-yl)methyl)piperidin-1-yl)nicotinamide]
- inhibition at 0.01 µM [3]: 20 to 30%
- inhibition at 0.5 µM [3]: 40 to 60%
- Degradation of substrate protein AR (substrate protein remaining %) [4]: A (0%≤substrate protein remaining %≤80%)
- inhibition at 0.01 µM [5]: 20 to 30%
- inhibition at 0.5 µM [5]: 40 to 60%
- inhibition at 0.01 µM [6]: 25 to 30%
- inhibition at 0.5 µM [6]: 40 to 60%
